Measurements: US7919076B2, “PH-sensitive polymeric conjugates of an anthracycline cancerostatic drug for targeted therapy” (Zentiva, k.s., priority 2001, dated 2011)

Tested on: T-cellular lymphoma (EL4)
Test: in vivo anti-tumor activity, s.c. T-cellular lymphoma EL4 in C57BL/10 mice
Parameters: species or system mouse
Description: Mice of inbred strain C57BL/10 were subcutaneously transplanted with T-cellular lymphoma (EL4). The tumor cells were injected in the lower half of the back of experimental animals in the amount of 1×10^5 cells/mouse. The cell transplantation day was marked day 0. Polymeric conjugates with hydrolytically released doxorubicin were then administered intraperitoneally either on day 1, 3, 5, 7 and 9 (protective regimen), on day 10, 12, 14, 16 and 18 or on day 12, 14, 16, 18 and 20 (therapeutic regimen). The daily dose of doxorubicin was 50 μg/mouse.

Compound: COc1cccc2c1C(=O)c1c(O)c3c(c(O)c1C2=O)C[C@@](O)(C(=O)CO)C[C@@H]3O[C@H]1C[C@H](N)[C@H](O)[C@H](C)O1 [doxorubicin]
- anti-tumor effect (tumor growth, survival) (EL4, i.p., doxorubicin 50 μg/mouse daily dose): very limited effect
- maximum survival period of the experimental animals (EL4, control group 35 days): 40 days
